The test system of data set [1] is Bacillus subtilis ATCC 6633. As to the kind of experiment: Paper-disc agar-diffusion assay system (Plate Assay, Table VIII). Type of data set: cell-based. The following applies: samples at 1 mg/ml, as Na-K salts; dried-broth reference standard = 100 units/ml. As for the experimental part: (§1) The antimicrobial activity of two typical A-32887 acyl ester derivatives is compared with that of A-32887 (each as Na-K salts) in Table VIII. Activity against illustrative bacteria is measured by the conventional disc-diffusion method. In addition, the results of a conventional paper-disc agar-diffusion assay system (Plate Assay) against Bacillus subtilis ATCC 6633 are reported. The activity in this test is quantitated and uses a dried-broth reference standard which is assigned an arbitrary potency of 100 units/ml. The samples were assayed at 1 mg/ml.
(In agar diffusion tests the substance spreads into inoculated agar from a disc or well.)

The nature of data set [2]: Ionophore properties.
The subject of data set [3] is Staphylococcus aureus. As to the kind of experiment: Conventional disc-diffusion method (Table VIII). It is filed as cell-based. The following applies: as Na-K salts; samples at 1 mg/ml. As for the experimental part: as §1
Data set [4] has as its system Micrococcus lutea. As to the kind of experiment: Conventional disc-diffusion method (Table VIII). To be noted: as Na-K salts; samples at 1 mg/ml. It is filed as cell-based. As to the method:
as §1

The subject of data set [5] is Bacillus subtilis. As to the kind of experiment: Conventional disc-diffusion method (Table VIII). Type of data set: cell-based. The following applies: as Na-K salts, samples at 1 mg/ml. As for the experimental part:
as §1

The format of data set [6] is physicochemical. The following applies: 80% aqueous dimethylformamide. The text has this:
Electrometric titration of A-32887 methyl ether derivative (Na salt) in 80% aqueous dimethylformamide indicates the presence of a titratable group with a pKa value of about 5.4.

Experimental findings from patent US4133876A, “Antibiotic A-32887 and process for production thereof” (Eli Lilly and Company, priority 1977, dated 1979) are described below.

Each structure is given as a SMILES string.

As usually defined, the pKa is the negative logarithm of the acid dissociation constant. Read a low pKa as a group that gives up its proton readily. For `CO[C@H]1CC[C@H](OC2[C@@H](C)[C@@](C)(O)O[C@H]([C@H]3CC[C@H]([C@@H]4CC[C@H]([C@@]5(C)O[C@]6(O[C@H](C[C@@H]7O[C@](O)([C@@H](O)C(=O)O)[C@@H](C)[C@H](OC)[C@@]7(C)OC)C[C@@H](OC)[C@H]6C)[C@H](C)[C@H]5OC)O4)O3)[C@H]2C)O[C@@H]1C.[K+].[Na+]` (some centres unmarked) [A-32887], the “Plate Assay” value in data set [1] was found to be 1350 units/ml. Moreover, the “ion-binding and ion-transport properties” value in data set [2] was “exhibits ion-binding and iontransport properties”. Besides, the “cation permeability of membranes” value in data set [2] (natural and artificial membranes) is given as “alters the cation permeability”. Further, the “Activity by disc-diffusion, Staphylococcus aureus” value in data set [3] worked out at 16. Further, the “Activity by disc-diffusion, Micrococcus lutea” value in data set [4] came out at 16. The “Activity by disc-diffusion, Bacillus subtilis*” value in data set [5] (Minimal media) was determined as 30. Further, the “Activity by disc-diffusion, Bacillus subtilis” value in data set [5] turned out to be 18. The compound also displayed a pKa in data set [6] of 4.60.
